Source: patent US20020146424A1, “Polyphenolics for enhancing endothelial cell-mediated fibrinolysis” (priority 2001, published 2002)

Experiments:
cultured HUVECs = experiment: Surface-localized fibrinolytic activity (125I-labeled Glu-Pmg conversion to plasmin) in cultured HUVECs; type: cell-based, human; details: 1 hour preincubation; for surface-localized fibrinolytic activity, maximum increase: 0.001 μM, control 38.0 pmol/well; for surface-localized fibrinolytic activity, maximum increase / surface-localized fibrinolytic activity, peak: 24 hours after induction; for increase in fibrinolytic activity compared to control: measured 24 hours later; for surface-localized fibrinolytic activity, peak: 10 μM, control 38.0±4.0
Procedure: Human umbilical vein ECs (HUVECs) were obtained from fresh (discarded) umbilical cords by mild collagenase treatment (type 1, CLS) by the method of Jaffe et al (J. […] ECs were seeded into human fibronectin-coated Petri dishes (9.6 cm^2) or plastic flasks (25 cm^2) and grown to confluency. Cultures were maintained at 37° C. in a humidified 95% air, 5% CO2 atmosphere and re-fed every 48 hours with complete culture medium consisting of Medium 199 (M199) powdered medium containing L-glutamine and Earle's salt, 0.025 M HEPES buffer (pH 7.4), 0.0002 M fresh L-glutamine, 100 units/ml of penicillin, 100 μg/ml streptomycin, 10% heat-deactivated FBS, 90 μg/ml heparin and 50 μg/ml of unpurified ECGF. […] Cells were routinely counted using phase microscopy and a 0.5 mm×0.5 mm counting reticule. Individual HUVEC cultures were routinely examined for their purity and characterized as ECs by their uptake of Dil-Ac-LDL and typical monlayer “cobblestone” tight-packing morphology. Only individual cultures with 95% identifiable ECs were used in these studies. All alcohol induction studies were conducted with confluent cultured HUVECs (in 96-well plates) preincubated in the absence/presence of varying concentration of alcohol (0-0.1%, v/v) for one hour at 37° C., washed two times in DBPS, re-fed with complete 10% serum containing medium and then further incubated at 37° C. in the absence of alcohol for 24 hours. surface-localized fibrinolytic activity was measured as the conversion of ^125-labeled Glu-Pmg levels after 24 hours. All studies were conducted with confluent cultured HUVECs. The cells were preincubated in the absence/presence of varying dilutions (1:1000, 1:500, 1:250, 1:125, 1:62.5) of red wine, de-alcoholized red wine or grape juice for 1 hour at 37° C., washed two times with DPBS, re-fed with complete 10% serum-containing medium, and then further incubated at 37° C. in the absence of these compounds for 24 hours. Surface-localized fibrinolytic activity was measured as the conversion of ^125-labeled Glu-Pmg levels after 24 hours. All polyphenolic induction studies were conducted with confluent cultured HUVECs (in 96-well plates). The cells were preincubated in the absence/presence of varying concentrations (0.001-10 μM) of catechin, epicatechin, quercetin or resveratrol for 1 hour at 37° C., washed two times with DPBS, re-fed with complete 10% serum-containing medium, and then further incubated at 37° C. in the absence of these compounds for 24 hours. Surface-localized fibrinolytic activity was measured by the direct conversion of cell-bound ^125I-labeled Glu-Pmg hours after the initial induction period. […] The generation of either ^125I-labeled plasmin Mr 20-kDa light or Mr 83-kDa heavy chain formation was quantitated by phosphorimaging autoradiography after SDS-PAGE under reduced conditions. […] The cultures were then placed in a water bath at 37° C. to initiate the receptor-bound endogenous PA-mediated conversion of ^125I labeled Glu-Pmg to ^125I-labeled plasmin. Reactions were stopped after 1 and 10 minutes by the rapid addition of 40 μl of hot (56° C.) solubilizing buffer (4% sodium dodecyl sulfate (SDS), 10% glycerol and 0.2M Tris-HCl, pH 6.8). The total solubilized contents of each well containing generated ^125I-labeled plasmin were removed and reduced by the addition of 5% B-mercaptoethanol and boiling for 5 minutes. […] The radioactivity content of either the ^125I-labeled plasmin light- or heavy-chains was determined by quantitative phosphorimaging autoradiography. After electrophoresis, gels were dried and exposed in phosphorimaging cassettes for 16-18 hours. The amount of remaining ^125I-labeled Glu-Pmg and newly generated ^125I-labeled Mr 20-kDa plasmin light chain in each individual gel was quantitated by measuring the radioactivity content in each band by phosphorimaging autoradiography, using a Molecular Dynamics Series […] Phosphorimager in combination with ImageQuant software. […]

t-PA mRNA = t-PA mRNA expression in rat aortic endothelium by in situ hybridization after gavage; type: in vivo, Sprague Dawley rats; details: 6 hours after gavage; catechin 0.495, epicatechin 0.224, quercetin 0.033, resveratrol 0.0033 mg/kg; ethanol 1.25% v/v
Procedure: (§1) Rats used in in vivo studies were Sprague Dawley rats weighing 250 to 300 grams.
For in vivo studies, 18 male Sprague Dawley rats, 250-300 g, were intubated with Popper feeding tubes (20 gauge, 1.5 inches). The control group of three rats were gavaged with PBS in a final volume of 1 ml. Five experimental groups with three rats per groups were gavaged with 1 ml of PBS containing either individual phenolic (catechin, 0.495; epicatechin, 0.224; quercetin, 0.033; and resveratrol, 0.0033 mg/kg body weight), or ethanol 1.25% v/v, for final 0.05% blood level. These doses of phenolics and ethanol are equivalent, on a per kg basis, to the amount consumed in about 2 glasses (25 ml) of red wine by a 70 kg adult. The t-PA and u-PA mRNA expression was analyzed at 6 hours after treatment, when the rats were anesthetized with ketamine/rompin. The thoracic aorta was perfusion-fixed and paraffin embedded to evaluate the effects of ethanol and individual phenolics on the induction of t-PA and u-PA mRNA expression in vivo in the aortic endothelium using in situ hybridization using riboprobes.
To insure that the t-PA and u-PA sense and antisense riboprobes were specific for their respective mRNAs in tissue sections, the sequence-verified riboprobes were hybridized with purified rat liver RNA, rich in t-PA and u-PA mRNA.

PAI-1 mRNA = PAI-1 mRNA expression in rat thoracic aorta endothelial cells by in situ hybridization after gavage; type: in vivo; details: 6 hours after gavage; catechin 0.495, epicatechin 0.224, quercetin 0.033, resveratrol 0.0033 mg/kg; ethanol 1.25% v/v
Procedure: as §1
In in vivo studies of rat thoracic aorta, eighteen male rats were treated by gavage as indicated above. One control group of three rats was gavaged with 1 ml of saline. Five experimental groups with three rats per group were then gavaged with 1 ml saline containing one of the following: (i) 1.25% (v/v) ethanol, (i) 0.495 mg catechin per kg body weight, (iii) 0.224 mg epicatechin per kg body weight, (iv) 0.033 mg quercetin per kg body weight, or (v) 0.0033 mg resveratrol per kg body weight.
At 3 and 6 hours following gavage, the animals were anesthetized with ketamine/rompin (10 and 1.5 mg/100 g body weight, respectively). The portal vein was cannulated and the vasculature perfused with cold, heparinized saline for 5 minutes to remove blood. […] The thoracic aorta was perfused-fixed and paraffin embedded to evaluate the short-term effects of alcohol/phenolics on PA1-I mRNA expression using in situ hybridization techniques.

Molecule	surface-localized fibrinolytic activity, maximum increase (cultured HUVECs) [pmol/well]	t-PA mRNA chromogenic signal intensity (antisense riboprobe) in aortic tissue sections vs PBS-treated animals (t-PA mRNA)	expression of PAI-1 mRNA in endothelium of thoracic aorta (PAI-1 mRNA)	increase in fibrinolytic activity compared to control (cultured HUVECs; 0.05% (v/v) ethanol, p=0.05)	increase in fibrinolytic activity compared to control (cultured HUVECs; 0.1% (v/v) ethanol, p=0.0055)	surface-localized fibrinolytic activity, peak (cultured HUVECs)
Oc1cc(O)c2c(c1)O[C@H](c1ccc(O)c(O)c1)[C@H](O)C2 [epicatechin]	89.0±4.0	–	–	–	–	–
CCO [ethanol, reference compound]	–	more chromogenic signal intensity	significant decrease	about 1.5 fold	about 3 fold	–
O=c1c(O)c(-c2ccc(O)c(O)c2)oc2cc(O)cc(O)c12 [quercetin]	–	more chromogenic signal intensity	markedly reduced	–	–	64.0±6.0
Oc1ccc(C=Cc2cc(O)cc(O)c2)cc1 [resveratrol]	–	more chromogenic signal intensity	markedly reduced	–	–	55.0±6.0
catechin	91.5±5.0	more chromogenic signal intensity	markedly reduced	–	–	–
